Experiment: method code SF-AS, from DOI: 10.1002/ardp.19903230114, PMID: 2334269
Settings: pH 7.4

SMILES | logD
OC1(c2ccccc2)CN2CCCCC2CO1 (configuration not stated) | 1.77
CCCCOC1(c2ccccc2)CN(CCCC)CCO1 (configuration not stated) | 2.13
CCCCCOC1(c2ccccc2)CN(C)C2CCCCC2O1 (configuration not stated) | 2.05
CCCCN1CCOC(OCC)(c2ccccc2)C1 (configuration not stated) | 2
CCCCN1CCOC(OCCC)(c2ccccc2)C1 (configuration not stated) | 2.03
CN1CC(O)(c2ccccc2)OC2CCCCC21 (configuration not stated) | 1.81
CCCOC1(c2ccccc2)CN(C)C2CCCCC2O1 (configuration not stated) | 1.91

The next lines start with the values.

logD | SMILES
1.95 | CC(C)COC1(c2ccccc2)CN2CCCCC2CO1 (configuration not stated)
1.95 | c1ccc(COC2(c3ccccc3)CN3CCCCC3CO2)cc1 (configuration not stated)
1.92 | CCCOC1(c2ccccc2)CN2CCCCC2CO1 (configuration not stated)
1.87 | CCOC1(c2ccccc2)CN2CCCCC2CO1 (configuration not stated)
1.94 | CCCCOC1(c2ccccc2)CN2CCCCC2CO1 (configuration not stated)

Source: the SangsterLogP compilation
